{"source": "patent US10487056B2", "about": "“Small molecule androgen receptor inhibitors and methods of use thereof” (GEORGETOWN UNIVERSITY, priority 2015, dated 2019)", "type_in_all_cases": "cell-based", "key": {"[1]": {"molecular_target": "T1, AR (Homo sapiens, UniProt P10275)", "T1 construct": "Androgen-dependent VCaP cells were made to stably express an androgen-response element luciferase reporter (VCaP-ARE-luc); host or cells: VCaP / VCaP-ARE-luc", "T1 sequence (P10275 1-920)": "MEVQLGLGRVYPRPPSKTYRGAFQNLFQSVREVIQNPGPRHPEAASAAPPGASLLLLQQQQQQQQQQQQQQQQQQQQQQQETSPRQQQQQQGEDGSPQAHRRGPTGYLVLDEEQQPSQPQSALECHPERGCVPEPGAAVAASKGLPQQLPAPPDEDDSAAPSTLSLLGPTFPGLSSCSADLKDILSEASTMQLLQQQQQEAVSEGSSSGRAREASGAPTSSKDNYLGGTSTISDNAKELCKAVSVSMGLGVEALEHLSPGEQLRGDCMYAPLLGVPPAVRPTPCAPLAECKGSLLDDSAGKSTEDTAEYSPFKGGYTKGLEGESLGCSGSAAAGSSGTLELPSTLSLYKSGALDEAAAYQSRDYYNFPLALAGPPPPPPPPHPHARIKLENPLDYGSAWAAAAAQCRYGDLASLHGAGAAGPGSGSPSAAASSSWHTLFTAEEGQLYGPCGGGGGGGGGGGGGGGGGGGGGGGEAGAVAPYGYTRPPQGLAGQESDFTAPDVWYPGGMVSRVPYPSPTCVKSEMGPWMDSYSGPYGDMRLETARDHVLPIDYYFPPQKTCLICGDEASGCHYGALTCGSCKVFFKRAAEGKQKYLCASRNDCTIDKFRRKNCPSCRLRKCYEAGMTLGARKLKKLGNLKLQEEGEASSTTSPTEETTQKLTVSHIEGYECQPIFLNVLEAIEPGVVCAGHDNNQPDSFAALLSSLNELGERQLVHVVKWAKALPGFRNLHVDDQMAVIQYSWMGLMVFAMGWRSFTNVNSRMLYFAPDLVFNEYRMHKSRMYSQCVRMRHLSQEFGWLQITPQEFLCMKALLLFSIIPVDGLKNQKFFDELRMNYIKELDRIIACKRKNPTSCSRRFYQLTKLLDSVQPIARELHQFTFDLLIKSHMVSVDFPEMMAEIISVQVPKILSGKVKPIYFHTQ", "assay": "VCaP-ARE-luc androgen-response element luciferase reporter assay", "settings": "DHT 1 nM, 24 hours", "method": "VCaP and CWR22Rv1 (referred to as 22Rv1) cells were transduced with ARE-luciferase Cignal Lenti Pathway Reporter (Qiagen; Valencia, Calif.) and cultured as described above in the presence of 1 μg/mL puromycin. Following antibiotic selection, cells stably expressing ARE-luciferase were isolated, cloned and cultured to generate a stable ARE-reporter cell lines.\nAndrogen-dependent VCaP cells were made to stably express an androgen-response element luciferase reporter (VCaP-ARE-luc)."}, "[2]": {"test_system": "VCaP-MDVR cells", "assay": "Cell viability (MTT), VCaP-MDVR cells", "settings": "MDV3100, ARN-509 10 μM, SH-I-125 range, 3 days", "procedure": "Cell viability was measured using the MTT assay.\nCells were treated in the manner indicated below for the specified period of time."}, "[3]": {"test_system": "AR", "assay": "Immunofluorescence staining of AR in 22Rv1-MDVR cells", "settings": "MDV3100 10 μM, ARN509 10 μM or SH-I-125 1 μM, 24 hours", "method": "[…]. AR and AR-V7 expression levels were assessed.\nImmunofluorescence staining was performed as described in Amin et al., Mol. Cancer Ther., 13:341-52 (2014)."}}, "data": [{"smiles": "COc1ccc2c(c1)[nH]c1c(C)c(OS(=O)(=O)c3cccc4ccccc34)ccc12", "note": "[SH-I-125, 7-methoxy-1-methyl-9H-carbazol-2-yl naphthalene-1-sulfonate]", "values": [{"measurement": "potency relative to mahanine on AR signaling (ARE-luc)", "setting": "[1]", "result": "more potent than mahanine"}, {"measurement": "inhibition of AR transactivation (luciferase activity)", "setting": "[1]; range of doses", "result": "comparable decline in luciferase activity"}, {"measurement": "cell growth / viability", "setting": "[2]", "result": "effective in preventing the growth"}, {"measurement": "AR nuclear localization", "setting": "[3]", "result": "decreased AR nuclear levels"}]}]}
